Patent publication US11780845B2 (Relay Therapeutics, Inc., priority 2019, dated 2023)

The molecules below were run against T1, FGFR2 (Homo sapiens (Human), UniProt P21802) (assay: Biochemical FGFR2 Caliper assay). Conditions: not given.
T1 sequence (P21802 22-821): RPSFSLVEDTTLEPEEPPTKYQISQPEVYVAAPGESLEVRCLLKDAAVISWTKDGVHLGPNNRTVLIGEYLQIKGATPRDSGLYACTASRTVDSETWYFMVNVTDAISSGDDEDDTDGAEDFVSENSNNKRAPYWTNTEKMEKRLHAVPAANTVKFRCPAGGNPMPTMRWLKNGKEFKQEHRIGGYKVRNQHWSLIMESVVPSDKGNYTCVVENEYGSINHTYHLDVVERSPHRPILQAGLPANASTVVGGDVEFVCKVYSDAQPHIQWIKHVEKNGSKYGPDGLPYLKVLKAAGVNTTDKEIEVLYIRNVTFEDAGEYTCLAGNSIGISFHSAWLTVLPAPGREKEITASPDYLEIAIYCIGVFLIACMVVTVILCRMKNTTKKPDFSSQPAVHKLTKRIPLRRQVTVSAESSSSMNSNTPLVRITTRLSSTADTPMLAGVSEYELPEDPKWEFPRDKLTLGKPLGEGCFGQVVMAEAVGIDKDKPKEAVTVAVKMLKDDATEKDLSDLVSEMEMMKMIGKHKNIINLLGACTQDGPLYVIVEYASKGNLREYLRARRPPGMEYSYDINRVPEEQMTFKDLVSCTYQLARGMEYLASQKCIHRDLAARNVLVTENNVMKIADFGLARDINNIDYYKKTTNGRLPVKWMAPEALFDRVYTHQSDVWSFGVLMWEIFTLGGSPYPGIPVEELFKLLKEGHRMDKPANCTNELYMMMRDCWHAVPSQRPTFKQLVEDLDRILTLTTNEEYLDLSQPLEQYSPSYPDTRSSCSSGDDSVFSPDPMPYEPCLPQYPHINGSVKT

| SMILES | IC50 [µM] |
| --- | --- |
| C=CC(=O)Nc1ccc(-c2c(C3=CC[C@H](C(=O)N4CCCC4)CC3)c3c(N)ncnc3n2C)c(C)c1 (single isomer, unassigned) [Example 1101] | < 0.1 |
| C=CC(=O)Nc1ccc(-c2c(-c3ccc(Oc4nccc(C)n4)c(C)c3)c3c(N)ncnc3n2C)c(F)c1 [Example 1075] | < 0.1 |
| C=C(C)C(=O)Nc1cc(Cl)c(-c2c(-c3ccc(Oc4nccc(C)n4)cc3)c3c(N)ncnc3n2C)cc1F [Example 1076] | < 0.1 |
| CN(C)C/C=C/C(=O)Nc1cccc(-c2c(-c3ccc(C(=O)N4CCCC4)cc3)c3c(N)ncnc3n2C)c1 [Example 1099] | < 0.1 |
| C#Cc1ncc(-c2c(-c3ccc(Oc4nccc(C)n4)cc3)c3c(C)ncnc3n2C)c(C)n1 [Example 1100] | 0.1 to 0.25 |
| C=C(C)C(=O)Nc1ccc(-c2c(-c3ccc4nn(C)cc4c3)c3c(N)ncnc3n2C)cc1 [Example 1122] | < 0.1 |
| C#Cc1cc(C)c(-c2c(-c3ccc(OC(F)(F)F)cc3)c3c(N)ncnc3n2C)cn1 [Example 1129] | < 0.1 |
| C=C(C)C(=O)Nc1cnc(-c2c(-c3ccc(Oc4cccc(C)n4)c(F)c3)c3c(C)ncnc3n2C)c(C)c1 [Example 1139] | < 0.1 |
| C=C(C)C(=O)Nc1ccc(-c2c(-c3ccc(-n4ccc(C)n4)nc3)c3c(N)ncnc3n2C)cc1 [Example 1146] | 0.25 to 1 |
| C=CC(=O)Nc1ccc(-c2c(-c3ccc4cc[nH]c4c3)c3c(N)ncnc3n2C)cc1 [Example 1147] | 1 to 100 |
| C=CC(=O)Nc1ccc(-c2c(-c3cc4ccccc4s3)c3c(N)ncnc3n2C)cc1 [Example 1149] | < 0.1 |
| C=CC(=O)Nc1ccc(-c2c(-c3cnsc3)c3c(N)ncnc3n2C)cc1 [Example 1150] | < 0.1 |
| C=C(C)C(=O)Nc1ccc(-c2c(C#Cc3cc(OC)cc(OC)c3)c3c(N)ncnc3n2C)cc1 [Example 1152] | 1 to 100 |
| C=C(C)C(=O)Nc1ccc(-c2c(-c3ccc(-c4ccn[nH]4)cc3)c3c(N)ncnc3n2C)cc1 [Example 1156] | 1 to 100 |
| C#Cc1ncc(-c2[nH]c3ncnc(N)c3c2-c2ccc(Oc3nccc(C)n3)cc2)c(C)n1 [Example 1159] | 0.25 to 1 |
| Cn1c(-c2ccc(C#N)cc2)c(-c2ccccc2)c2c(N)ncnc21 [Example 1173] | 1 to 100 |
| C#Cc1ccc(-c2c(-c3ccc(Oc4nccc(C)n4)c(F)c3)c3c(C)ncnc3n2C)c(C)n1 [Example 1174] | 1 to 100 |
| C#Cc1cnc(-c2c(-c3ccc(Oc4nccc(C)n4)cc3)c3c(N)ncnc3n2C)c(C)n1 [Example 1176] | 1 to 100 |
| C#Cc1ncc(-c2c(-c3ccc(Oc4nccc(C)n4)cc3)c3c(N)ncnc3n2C)cc1OC [Example 1178] | 1 to 100 |
| C=C(C)C(=O)Nc1ccc(-c2c(C3=CCN(C(=O)OCc4ccccc4)CC3)c3c(N)ncnc3n2C)cc1 [Example 1190] | 1 to 100 |
| C=C(C)C(=O)Nc1ccc(-c2c(-c3ccc(-n4cc(C)cn4)cc3)c3c(N)ncnc3n2C)cc1 [Example 1191] | 1 to 100 |
| C#Cc1ccc(-c2c(-c3ccccc3)c3c(N)ncnc3n2C)cn1 [Example 1192] | < 0.1 |
| C=Cc1cc(-c2c(-c3ccccc3)c3c(N)ncnc3n2C)ccn1 [Example 1195] | 0.1 to 0.25 |
| C#Cc1cc(C)c(-c2c(-c3ccc(Oc4nccc(C)n4)cc3F)c3c(N)ncnc3n2C)cn1 [Example 1196] | 0.25 to 1 |
| C=C(C)C(=O)Nc1ccc(-c2c(-c3cc4ccccc4s3)c3c(N)ncnc3n2C)cc1 [Example 1209] | 0.25 to 1 |

| SMILES | IC50 [µM] |
| --- | --- |
| C=C(C)C(=O)Nc1ccc(-c2c(C3=CCN(c4ccccc4)CC3)c3c(N)ncnc3n2C)cc1 [Example 1216] | 1 to 100 |
| C=CC(=O)Nc1ccc(-c2c(-c3ccc(Oc4ccccc4)cc3)c3c(C)ncnc3n2C(C)C)cc1 [Example 1218] | 1 to 100 |
| C=CC(=O)Nc1ccc(-c2c(-c3ccc(Oc4cccc(C)n4)cc3)c3c(C)ncnc3n2C)cc1 [Example 1220] | < 0.1 |
| C=C(C)C(=O)Nc1ccc(-c2c(-c3cc(-c4ccccc4)cs3)c3c(N)ncnc3n2C)cc1 [Example 1221] | 0.25 to 1 |
| C=C(C)C(=O)Nc1ccc(-c2c(C3=CCC(c4nc(C)no4)CC3)c3c(N)ncnc3n2C)cc1 (centres unmarked) [Example 1222] | 1 to 100 |
| C=CC(=O)Nc1ccc(-c2c(-c3cc4ccccc4s3)c3c(C)ncnc3n2C)cc1 [Example 1223] | 1 to 100 |
| C=C(C)C(=O)Nc1ccc(-c2c(-c3ccc(-c4coc(C)n4)cc3)c3c(N)ncnc3n2C)cc1 [Example 1224] | 0.25 to 1 |
| C=CC(=O)Nc1ccc(-c2c(-c3ccc(Oc4ccccc4)cc3)c3c(C)ncnc3n2C)cc1 [Example 1225] | 0.25 to 1 |
| C=C(C)C(=O)Nc1ccc(-c2c(-c3ccc(-n4cc(C(F)(F)F)cn4)cc3)c3c(N)ncnc3n2C)cc1 [Example 1226] | 1 to 100 |
| C=C(C)C(=O)Nc1ccc(-c2c(C3=CCC(c4ccccc4)CC3)c3c(N)ncnc3n2C)cc1 (centres unmarked) [Example 1227] | 1 to 100 |
| C=C(C)C(=O)Nc1ccc(-c2c(-c3ccc(-c4nc(C)no4)cc3)c3c(N)ncnc3n2C)cc1 [Example 1244] | 1 to 100 |
| C=C(C)C(=O)Nc1ccc(-c2c(-c3sc4ccccc4c3C)c3c(N)ncnc3n2C)cc1 [Example 1247] | 1 to 100 |
| C=CC(=O)Nc1ccc(-c2c(-c3ccccc3)c3c(C)ncnc3n2C)cc1 [Example 1248] | 1 to 100 |
| C=CC(=O)Nc1ccc(-c2[nH]c3ncnc(C)c3c2-c2ccc(Oc3ccccc3)cc2)cc1 [Example 1254] | 1 to 100 |
| C=CC(=O)Nc1ccc(-c2[nH]c3ncnc(C)c3c2-c2cc3ccccc3s2)cc1 [Example 1256] | 1 to 100 |
| C=C(C)C(=O)Nc1ccc(-c2c(-c3ccc(-c4noc(C5CC5)n4)c([N+](=O)[O-])c3)c3c(N)ncnc3n2C)cc1 [Example 1317] | 1 to 100 |
| C=C(C)C(=O)Nc1ccc(-c2c(-c3ccc(-c4noc(C5CC5)n4)c(N)c3)c3c(N)ncnc3n2C)cc1 [Example 1318] | 1 to 100 |
| C=C(F)C(=O)Nc1ccc(-c2c(-c3ccc(-c4noc(C5CC5)n4)cc3)c3c(N)ncnc3n2C)cc1 [Example 1326] | 0.1 to 0.25 |
| C=C(C)C(=O)Nc1ccc(-c2c(-c3ccc(-c4noc(C5CC5)n4)cc3)c3c(N)ncnc3n2C)cc1 [Example 1333] | 0.25 to 1 |
| C=CC(=O)Nc1ccc(-c2c(-c3ccc(-c4noc(C5CC5)n4)cc3)c3c(N)ncnc3n2C)cc1 [Example 1335] | < 0.1 |
| C=C(C)C(=O)Nc1ccc(-c2c(-c3ccc(-c4noc(C5CC5)n4)cc3)c3c(N)ncnc3n2C)cn1 [Example 1362] | 0.1 to 0.25 |
| C#Cc1cc2c(cn1)-c1c(C3=CC[C@@H](C(=O)N4CCC[C@H]4C#N)CC3)c3c(N)ncnc3n1CCC2 [Example 1444] | < 0.1 |
| [2H]C#Cc1cc2c(cn1)-c1c(-c3ccc(Oc4nccc(C)n4)c(F)c3)c3c(N)ncnc3n1CCC2 [Example 1449] | < 0.1 |
| C#Cc1cc(OC)c(-c2c(-c3ncc(Oc4nccc(C)n4)cc3F)c3c(N)ncnc3n2C)c(C)n1 [Example 1451] | < 0.1 |
| C#Cc1cc2c(cn1)-c1c(C3=CC[C@H](C(=O)N4CCC[C@H]4C#N)CC3)c3c(N)ncnc3n1CCC2 [Example 1496] | 0.25 to 1 |

These molecules were tested on SNU-16 (assay: Cell SNU-16 assay). Conditions: SNU-16 cells.
Type: cell-based

| SMILES | IC50 [µM] |
| --- | --- |
| C#Cc1ccc(-c2c(-c3ccc(Oc4nccc(C)n4)c(F)c3)c3c(N)ncnc3n2C(C)C)c(C)n1 (atropisomer, axis not shown) [Example 1258] | ≤ 0.1 |
| C#Cc1ccc(-c2c(-c3ccc(Oc4nccc(C)n4)c(F)c3)c3c(N)ncnc3n2C(C)C)c(C)n1 (atropisomer, axis not shown) [Example 1259] | ≤ 0.1 |
| C#Cc1cc(C)c(-c2c(-c3ccc(Oc4nccc(C)n4)c(F)c3)c3c(N)ncnc3n2C(C)C)cn1 (atropisomer, axis not shown) [Example 1307] | ≤ 0.1 |
| C#Cc1cc(C)c(-c2c(-c3ccc(Oc4nccc(C)n4)c(F)c3)c3c(N)ncnc3n2C(C)C)cn1 (atropisomer, axis not shown) [Example 1308] | ≤ 0.1 |

What follows are molecules tested against T1, FGFR2 (assay: FGFR2 Biochemical Caliper Assay). Conditions: not given.
Experimental: Compounds of the present invention were also tested in a FGFR2 Biochemical Caliper Assay. Compounds were prepared in 10 mM DMSO solution and serially diluted into 11 concentrations by 3-fold dilution. […] 5 uL of ATP solution (100 uM) was added to start the reaction and the plate was incubated for 90 minutes, then 70 uL of stopping buffer (0.5M EDTA) was added to terminate the reaction. Each well was analyzed using EZ reader.

| SMILES | IC50 [µM] |
| --- | --- |
| C=CC(=O)N[C@H]1C[C@@H](n2cc(-c3c(-c4ccc(Oc5ccccc5)cc4)c4c(N)ncnc4n3C)cn2)C1 [Example 606] | < 0.1 |
| C=CC(=O)N1CCC(n2cc(-c3c(-c4ccc(Cl)c(OC)c4)c4c(N)ncnc4n3C)cn2)CC1 [Example 609] | 0.25 to 1 |
| C=CC(=O)N1CCC(n2cc(-c3c(-c4ccc(F)c(OC)c4)c4c(N)ncnc4n3C)cn2)CC1 [Example 610] | 0.25 to 1 |
| C=CC(=O)N1CCC(n2cc(-c3c(-c4ccccc4OC)c4c(N)ncnc4n3C)cn2)CC1 [Example 611] | 1 to 100 |
| C=CC(=O)N1CCC(n2cc(-c3c(-c4ccc(Oc5ccccc5)c(OC)c4)c4c(N)ncnc4n3C)cn2)CC1 [Example 612] | 0.1 to 0.25 |
| C=CC(=O)N1CCC(n2cc(-c3c(-c4cc(OC)c(Cl)cc4Cl)c4c(N)ncnc4n3C)cn2)CC1 [Example 613] | 1 to 100 |
| C=CC(=O)N1CCC(n2cc(-c3c(-c4cc(OC)c(Cl)cc4F)c4c(N)ncnc4n3C)cn2)CC1 [Example 614] | 1 to 100 |
| C=CC(=O)N1CCC(n2cc(-c3c(-c4ccc(Oc5ccccc5)cc4Cl)c4c(N)ncnc4n3C)cn2)CC1 [Example 615] | < 0.1 |
| C=CC(=O)N1CCC(n2cc(-c3c(-c4c(Cl)ccc5c4OCO5)c4c(N)ncnc4n3C)cn2)CC1 [Example 616] | 1 to 100 |
| C=CC(=O)N[C@H]1CC[C@@H](c2c(-c3ccc(Oc4cccc(C)n4)c(OC)c3)c3c(N)ncnc3n2C)CC1 [Example 624] | 1 to 100 |
| C=CC(=O)N[C@H]1CC[C@H](c2c(-c3ccc(Oc4cccc(C)n4)c(OC)c3)c3c(N)ncnc3n2C)CC1 [Example 625] | 0.25 to 1 |
| C=CC(=O)N1CCC(N2CC(c3c(-c4ccc(Oc5cccc(C)n5)c(OC)c4)c4c(N)ncnc4n3C)C2)CC1 [Example 658] | 1 to 100 |
| C=CC(=O)N1CCC(N2CC(c3c(-c4ccc(Oc5cccc(C)n5)cc4)c4c(N)ncnc4n3C)C2)CC1 [Example 659] | 1 to 100 |
| C=CC(=O)N1CCC(c2c(-c3ccc(Oc4cccc(C)n4)c(OC)c3)c3c(N)ncnc3n2C)=CC1C (centres unmarked) [Example 679] | < 0.1 |
